Laboratory results: ChEMBL document CHEMBL1150051, “Antiviral (RNA) activity of selected Amaryllidaceae isoquinoline constituents and synthesis of related substances” (J Nat Prod, 1992)
In brackets after ≈: the same amount, converted by molar mass.

How the values were obtained:
[1] = system: dengue virus type 4; experiment: Antiviral activity against Dengue virus type 4 infected in african green monkey Vero cells after 6 days by plaque reduction assay; assay type: functional, organism-based
[2] = system: Rift Valley fever virus; experiment: Antiviral activity against Rift Valley fever virus infected in african green monkey Vero cells after 6 days by plaque reduction assay; assay type: functional, organism-based
[3] = Therapeutic index, ratio of TC50 for african green monkey Vero cells to IC50 for Punta toro virus Adames; assay type: cell-based; details: read-out: TI
[4] = system: Sandfly fever Sicilian virus; experiment: Antiviral activity against Sandfly fever sicilian virus infected in african green monkey Vero cells assessed as inhibition of virus-induced cytopathic effect by MTT assay; assay type: functional, organism-based
[5] = system: Japanese encephalitis virus; experiment: Antiviral activity against Japanese encephalitis virus Nakayama infected in african green monkey Vero cells assessed as inhibition of virus-induced cytopathic effect by MTT assay; assay type: functional, organism-based
[6] = system: Yellow fever virus; experiment: Antiviral activity against Yellow fever virus Ashibi infected in african green monkey Vero cells assessed as inhibition of virus-induced cytopathic effect by MTT assay; assay type: functional, organism-based
[7] = Therapeutic index, ratio of TC50 for african green monkey Vero cells to IC50 for Japanese encephalitis virus Nakayama; assay type: cell-based; details: read-out: TI
[8] = Therapeutic index, ratio of TC50 for african green monkey Vero cells to IC50 for Yellow fever virus Ashibi; assay type: cell-based; details: read-out: TI
[9] = Therapeutic index, ratio of TC50 for african green monkey Vero cells to IC50 for Dengue type 4 virus; assay type: cell-based; details: read-out: TI
[10] = Therapeutic index, ratio of TC50 for african green monkey Vero cells to IC50 for Rift valley fever virus; assay type: cell-based; details: read-out: TI
[11] = system: Punta Toro virus; experiment: Antiviral activity against Punta Toro virus Adames infected in african green monkey Vero cells assessed as inhibition of virus-induced cytopathic effect by MTT assay; assay type: functional, organism-based
[12] = Therapeutic index, ratio of TC50 for african green monkey Vero cells to IC50 for Sandfly fever sicilian virus; assay type: cell-based; details: read-out: TI
[13] = Dengue virus, Vero, 144 h, read-out: IC50
[14] = Rift Valley fever virus, Vero, 144 h, read-out: IC50
[15] = Japanese encephalitis virus, Nakayama, Vero, read-out: IC50
[16] = Yellow fever virus, Ashibi, Vero, read-out: IC50
[17] = Punta Toro virus, Adames, Vero, read-out: IC50
[18] = sandfly fever Sicilian virus, Vero, read-out: IC50

SMILES	IC50 [1, 13]	IC50 [2, 14]	selectivity ratio [3]	IC50 ([4]; vero)	IC50 [5, 15]	IC50 [6, 16]	selectivity ratio [7]	selectivity ratio [8]	selectivity ratio [9]	selectivity ratio [10]	IC50 [11, 17]	IC50 ([2]; vero)	IC50 ([5]; vero)	IC50 ([6]; vero)	IC50 ([11]; vero)	IC50 [4, 18]	selectivity ratio [12]	inhibition (INH) [4]	inhibition (INH) [6]	IC50 ([1]; vero)
O=c1[nH]c2c(c3cc4c(c(O)c13)OCO4)C[C@H](O)[C@@H](O)[C@H]2O [ISONARCICLASINE]	0.27 µg/mL (≈ 0.879 µM)	3.3 µg/mL (≈ 10.7 µM)	5.1	Not Active	0.72 µg/mL (≈ 2.34 µM)	0.22 µg/mL (≈ 0.716 µM)	2.1	4.1	18.5	7.6	0.28 µg/mL (≈ 0.911 µM)	–	–	–	–	–	–	–	–	–
O=C1N[C@@H]2C(=C[C@H](O)[C@@H](O)[C@H]2O)c2cc3c(c(O)c21)OCO3 [NARCICLASINE]	0.015 µg/mL (≈ 0.0488 µM)	–	3.9	Not Active	0.008 µg/mL (≈ 0.026 µM)	0.006 µg/mL (≈ 0.0195 µM)	4.08	6.1	4	–	0.0074 µg/mL (≈ 0.0241 µM)	Not Active	–	–	–	–	–	–	–	–
O=C1N[C@H]2C=C[C@@H](O)[C@H](O)[C@@H]2c2cc3c(cc21)OCO3	–	–	–	Not Active	–	–	–	–	–	–	–	Not Active	Not Active	Not Active	Not Active	–	–	–	–	–
O=c1[nH]c2c(c3cc4c(cc13)OCO4)C[C@H](O)[C@@H](O)[C@H]2O	8.5 µg/mL (≈ 29.2 µM)	10 µg/mL (≈ 34.3 µM)	3.7	Not Active	–	5.7 µg/mL (≈ 19.6 µM)	–	4.2	5.9	5	7.2 µg/mL (≈ 24.7 µM)	–	Not Active	–	–	–	–	–	–	–
CC(=O)O[C@@H]1[C@@H](OC(C)=O)[C@H](O)[C@@H]2c3cc4c(cc3C(=O)N[C@H]2[C@@H]1OC(C)=O)OCO4	< 5 µg/mL	–	4.2	Not Active	4.5 µg/mL (≈ 10.3 µM)	2.2 µg/mL (≈ 5.05 µM)	3.6	3.8	> 20	–	2.5 µg/mL (≈ 5.74 µM)	Not Active	–	–	–	–	–	–	–	–
CC(=O)O[C@@H]1[C@@H](O)[C@@H](O)[C@@H]2NC(=O)c3cc4c(cc3[C@H]2[C@H]1O)OCO4 [LYCORICIDINE MONOACETATE]	1.5 µg/mL	5.5 µg/mL	2.1	Not Active	3.3 µg/mL	4.8 µg/mL	3.3	4.3	33.3	4.4	4.7 µg/mL	–	–	–	–	–	–	–	–	–
O=C1N[C@@H]2C(=C[C@H](O)[C@@H](O)[C@H]2O)c2cc3c(cc21)OCO3	0.059 µg/mL (≈ 0.203 µM)	0.15 µg/mL (≈ 0.515 µM)	6.3	–	0.056 µg/mL (≈ 0.192 µM)	0.053 µg/mL (≈ 0.182 µM)	4.9	5.6	4.2	5.5	0.042 µg/mL (≈ 0.144 µM)	–	–	–	–	0.058 µg/mL (≈ 0.199 µM)	4.5	–	–	–
O=C1N[C@H]2[C@H](O)[C@H](O)[C@@H](O)C[C@@H]2c2cc3c(cc21)OCO3	0.5 µg/mL (≈ 1.7 µM)	0.25 µg/mL (≈ 0.852 µM)	5.9	Not Active	0.039 µg/mL (≈ 0.133 µM)	0.037 µg/mL (≈ 0.126 µM)	5.6	7.5	5	2	0.057 µg/mL (≈ 0.194 µM)	–	–	–	–	–	–	–	–	–
O=C1N[C@H]2[C@H](O)[C@H](O)[C@@H](O)C[C@@H]2c2cc3c(c(O)c21)OCO3	0.015 µg/mL (≈ 0.0485 µM)	–	3.3	Not Active	0.004 µg/mL (≈ 0.0129 µM)	< 0.003 µg/mL	5.6	> 8.5	4.2	–	0.008 µg/mL (≈ 0.0259 µM)	–	–	–	–	–	–	–	–	–
O=C1N[C@H]2CC=C[C@H](O)[C@@H]2c2cc3c(cc21)OCO3	–	–	–	Not Active	–	–	–	–	–	–	–	Not Active	Not Active	Not Active	Not Active	–	–	–	–	–
O=C1N[C@H]2C[C@@H](O)[C@@H](O)[C@H](O)[C@@H]2c2cc3c(cc21)OCO3	–	–	–	Not Active	–	–	–	–	–	–	–	Not Active	Not Active	Not Active	Not Active	–	–	–	–	–
COc1cc2c(cc1O)[C@@H]1[C@H](O)[C@@H](O)C=C3CCN(C2)[C@H]31 [PSEUDOLYCORINE]	0.39 µg/mL (≈ 1.35 µM)	0.63 µg/mL (≈ 2.18 µM)	3.9	Not Active	0.28 µg/mL (≈ 0.968 µM)	0.35 µg/mL (≈ 1.21 µM)	5	3.7	2.6	6	0.6 µg/mL (≈ 2.07 µM)	–	–	–	–	–	–	–	–	–
CC(=O)Oc1c2c(cc3c1C(=O)N[C@H]1[C@H](OC(C)=O)[C@H](OC(C)=O)[C@@H](OC(C)=O)C[C@@H]31)OCO2	–	–	6.4	–	8.1 µg/mL (≈ 17 µM)	–	3.5	–	–	–	12 µg/mL (≈ 25.1 µM)	–	–	–	–	–	–	25%	25%	–
CC(=O)O[C@@H]1[C@@H](OC(C)=O)[C@H](OC(C)=O)[C@@H]2c3cc4c(cc3C(=O)N[C@H]2[C@@H]1OC(C)=O)OCO4	–	–	–	Not Active	724 µg/mL (≈ 1520 µM)	262 µg/mL (≈ 549 µM)	2.8	3.8	–	–	–	Not Active	–	–	Not Active	–	–	–	–	–
O=C1N[C@H]2[C@H](O)[C@H](O)[C@@H](O)C[C@H]2c2cc3c(cc21)OCO3	4.4 µg/mL (≈ 15 µM)	–	4.8	–	12.7 µg/mL (≈ 43.3 µM)	9.6 µg/mL (≈ 32.7 µM)	4.9	6.6	5.7	–	14 µg/mL (≈ 47.7 µM)	–	–	–	–	25 µg/mL (≈ 85.2 µM)	3	–	–	–
CC(=O)O[C@@H]1[C@H](OC(C)=O)[C@@H](OC(C)=O)C=C2c3cc4c(cc3C(=O)N[C@H]21)OCO4 [LYCORICIDINE TRIACETATE]	–	–	–	Not Active	–	–	–	–	–	–	–	Not Active	Not Active	Not Active	Not Active	–	–	–	–	Not Active
O=C1N[C@H]2C=C[C@@H](O)[C@H](OC3CCCCO3)[C@@H]2c2cc3c(cc21)OCO3 (stereo partly specified)	–	–	–	Not Active	–	–	–	–	–	–	–	Not Active	Not Active	Not Active	Not Active	–	–	–	–	–
O=C1N[C@H]2[C@H](O)[C@H](O)[C@@H](O)C[C@H]2c2cc3c(c(O)c21)OCO3	2.5 µg/mL (≈ 8.08 µM)	1.4 µg/mL (≈ 4.53 µM)	3.6	–	0.96 µg/mL (≈ 3.1 µM)	1.3 µg/mL (≈ 4.2 µM)	5.1	3.9	> 2	3.6	2.2 µg/mL (≈ 7.11 µM)	–	–	–	–	–	–	25%	–	–
O[C@H]1[C@H]2c3cc4c(cc3CN3CCC(=C[C@@H]1O)[C@H]23)OCO4 [LYCORINE]	0.24 µg/mL (≈ 0.835 µM)	0.93 µg/mL (≈ 3.24 µM)	4.6	Not Active	0.33 µg/mL (≈ 1.15 µM)	0.28 µg/mL (≈ 0.975 µM)	8.2	7.3	10.4	5.4	0.5 µg/mL (≈ 1.74 µM)	–	–	–	–	–	–	–	–	–
CO[C@@H]1C=C[C@@]23c4cc5c(cc4C(O)O[C@H]2CN(C)[C@H]3C1)OCO5 (stereo partly specified) [PRETAZETTINE]	–	2.9 µg/mL (≈ 8.75 µM)	3.7	–	0.6 µg/mL (≈ 1.81 µM)	0.5 µg/mL (≈ 1.51 µM)	3.8	5.6	–	3.5	0.61 µg/mL (≈ 1.84 µM)	–	–	–	–	0.82 µg/mL (≈ 2.47 µM)	3	–	–	–
